Consider one molecule from publication PMC9289467, “A Novel Multifunctional 5,6-Dimethoxy-Indanone-Chalcone-Carbamate Hybrids Alleviates Cognitive Decline in Alzheimer’s Disease by Dual Inhibition of Acetylcholinesterase and Inflammation” (Frontiers in Aging Neuroscience, 2022).

For one data set, the system named is CD11c within microglia. The data set is described as follows: CD11c and Iba1 co-immunostaining (DAM marker). As to conditions: AP5-treated vs APP/PS1 mice. The data set is classed as in vivo. How it is done:
(§1) APP/PS1 mice of ages 6 months were randomly divided into vehicle (APP/PS1, n = 10) and treatment groups (AP5, n = 10), which were intragastrically administered with AP5 (40 mg/kg) once daily for consecutive 5 months. AP5 was dissolved in distilled water containing 1% sodium carboxymethyl cellulose.
The fixed hemibrains were paraffin-embedded and sectioned in the coronal plane. The slices were deparaffinized with xylene and rehydrated by a series of gradient alcohols. Antigen retrieval through microwave boiling was performed with 10 mM sodium citrate solution at pH 6.0. The slices were cooled down to room temperature and then rinsed in PBS solution. Then the slices were incubated in 10% goat serum blocking solution for 1 h followed by primary antibodies overnight at 4°C. The next day, the slides were labeled with biotinylated or fluorescent secondary antibodies. Slices were washed three times with PBS before being mounted. Images were captured using a SpinSR10 scanner (Olympus, Tokyo, Japan). […]
Cambridge, UK) or anti-GFAP (1:100, bs-0199R, Bioss) at4 °C. After being washed with PBS, slides were treated with a biotinylated secondary antibody for 30 min and with streptavidin-peroxidase complex for another 30 min at 37°C. Immunostaining was visualized with 3,3′-diaminobenzidine (DAB, ZL1-9018, Zhongshan Jinqiao, Beijing, China ).The images were acquired using a Nikon microscope (Nikon, […]

The next data set deals with Aβ40 and Aβ42. The data set is classed as in vivo, APP/PS1 mice. To be noted: cortex and hippocampus; AP5 40 mg/kg once daily 5 months. The method, then: as §1
(§2) For detecting the pathological soluble or insoluble Aβ in mice, sequential extractions were performed as follows: the half of right hippocampus and cortex from three groups were homogenized in TBS solution containing 5 mM EDTA, phosphatase inhibitor (P1050, Beyotime, Shanghai, China), and protease inhibitor cocktail (P1010, Beyotime) followed by centrifugation at 25,000g at 4°C for 1 h. The supernatant was collected as a TBS fraction and the resulting pellet was solubilized in 70% formic acid (FA), sonicated until the lysis buffer was clear, followed by centrifugation at 25,000g at 4°C for 1 h. The supernatant was collected as the FA fraction and neutralized (1:20) in a neutralization buffer (1 M tris base, 0.5 M Na2HPO4, 0.05% NaN3). Human Aβ40 and Aβ42 were determined by ELISA kits (E-EL-H0452c and E-EL-H0453c, Elabscience, Wuhan, China) in accordance with the manufacturer’s instructions. In addition, the levels of IL-1β (88-7013-88, Invitrogen), IL-6 (EK206HS-96, Multi sciences, HangZhou, China), and TNF-α (88-7324-88, Invitrogen) in TBS fraction were also determined by ELISA.

The next data set has as its system ACh. The data set is described as follows: Brain ACh level, Amplex Red kit, APP/PS1 mice. The data set is classed as in vivo, mouse. To be noted: AP5 40 mg/kg intragastric once daily 5 months, vs APP/PS1 mice. How it is done: as §1
The brain samples were weighed, homogenized in PBS solution, and centrifuged for 20 min at 25,000 g at 4°C. Amplex® Red acetylcholinesterase/acetylcholine assay kit (A12217, Thermo Fisher Scientific) was used to detect AChE activity and ACh levels in the supernatant in accordance with the manufacturer’s instructions.
Briefly, for ACh assay, the reactions were started by adding 100 µL of the Amplex Red reagent, HRP, choline oxidase, AChE working solution to each microplate well containing the controls and samples. For AChE assay, detection cocktail solution containing ACh, Amplex Red, choline oxidase and horseradish peroxidase was added toeach well. Assay plates were incubated at room temperature for 30 min and protected from light, followed by detecting fluorescence of resorufin (λex = 544 nm, λem = 590 nm) in a fluorescence microplate reader.
After deparaffinization and antigen retrieval, the sections were incubated with 0.3% hydrogen peroxide (H2O2) to inhibit endogenous peroxidase activity for 20 min and blocked by goat serum for 30 min at37°C. […]

In another data set the test system is TNF-α, IL-6, IL-1β. In words: ELISA of proinflammatory cytokines, APP/PS1 mice. As to conditions: TBS fraction, AP5 40 mg/kg once daily 5 months. It counts as in vivo. The method, then: as §1, §2
Another data set deals with NeuN, MAP2. In words: NeuN and MAP2 co-immunostaining and western blot, hippocampus. The data set is classed as in vivo, APP/PS1 mice. How it is done:
as §1
The fixed hemibrains were paraffin-embedded and sectioned in the coronal plane. The slices were deparaffinized with xylene and rehydrated by a series of gradient alcohols. Antigen retrieval through microwave boiling was performed with 10 mM sodium citrate solution at pH 6.0. The slices were cooled down to room temperature and then rinsed in PBS solution. Then the slices were incubated in 10% goat serum blocking solution for 1 h followed by primary antibodies overnight at 4°C. The next day, the slides were labeled with biotinylated or fluorescent secondary antibodies. Slices were washed three times with PBS before being mounted. Images were captured using a SpinSR10 scanner (Olympus, Tokyo, Japan).
Frozen hippocampus and cortex were homogenized in pre-cooling RIPA buffer (P0013B, Beyotime) supplemented with 1 mM phenylmethanesulfonyl fluoride (PMSF) and cocktail of protease and phosphatase inhibitors. […] The membranes were incubated with 5% fat-free milk blocking solution for 1 h at room temperature and then probed with primary antibodies overnight at 4°C. […] Densitometric analysis was performed using Quantity One software (Bio-Rad, Berkeley, CA, United States).
Briefly, for ACh assay, the reactions were started by adding 100 µL of the Amplex Red reagent, HRP, choline oxidase, AChE working solution to each microplate well containing the controls and samples. […] Assay plates were incubated at room temperature for 30 min and protected from light, followed by detecting fluorescence of resorufin (λex = 544 nm, λem = 590 nm) in a fluorescence microplate reader. […]
(1:100, BAF2655, R&D, Minneapolis, MN, USA). […] For the quantification of Aβ plaque-associated microglia and […]
On the technique in general: Immunoblotting shows a protein as a band on a membrane.

The mark [1] stands for this setting: hippocampal CA1 pyramidal layer.

On to `CCN(C)C(=O)Oc1cccc(/C=C2\Cc3cc(OC)c(OC)cc3C2=O)c1` [AP5, (E)-3-((5,6-dimethoxy-1-oxo-1,3-dihydro-2H-inden-2-ylidene)-methyl)phenylethyl(methyl)carbamate], for which, in the data set on CD11c within microglia, the “CD11c-positive area within the activated microglia” value is listed as “significantly elevated”. In the data set on Aβ40 and Aβ42, the “Aβ40 and Aβ42 in TBS-fraction” value is “no marked differences”; the “concentration of insoluble Aβ40 in FA-fractions” value is listed as “markedly decreased”; the “concentration of insoluble Aβ42 in FA-fractions” value is reported as “markedly decreased”. In the data set with ACh, the “ACh levels in cortex and hippocampus” value is “elevated levels of ACh”. In the data set with TNF-α, IL-6, IL-1β, the IL-1β level entry is “markedly reduced”, the IL-6 level entry was “markedly reduced” and the TNF-α level result is on record as “markedly reduced”. Also, in the data set with NeuN, MAP2 (setting [1]), the MAP2 signals entry was “restored” and the “average number of NeuN+ cells” value is reported as “restored”. Also, in the data set with NeuN, MAP2 (western blot, hippocampus), the “protein expression of NeuN and MAP2” value is reported as “markedly increased”.
